From patent US20110166196A1, “TREATMENT AND PROPHYLAXIS OF EPILEPSY AND FEBRILE SEIZURES” (priority 2008, published 2011)

Columns and labels:
[1] = biological target: T1, TRPV1 channels (Mus musculus, UniProt Q704Y3); assay: Heat-ramp evoked inward current and depolarization in CA1 pyramidal neurons of wild-type mice; assay type: cell-based
T1 construct: whole-cell recordings from acutely prepared brain slices from wild type C57BL/6 mice; from tissue; host or cells: acute coronal hippocampal slices from P14-P20 wild-type C57BL/6 mice: CA1 pyramidal neurons
T1 sequence (Q704Y3 whole entry): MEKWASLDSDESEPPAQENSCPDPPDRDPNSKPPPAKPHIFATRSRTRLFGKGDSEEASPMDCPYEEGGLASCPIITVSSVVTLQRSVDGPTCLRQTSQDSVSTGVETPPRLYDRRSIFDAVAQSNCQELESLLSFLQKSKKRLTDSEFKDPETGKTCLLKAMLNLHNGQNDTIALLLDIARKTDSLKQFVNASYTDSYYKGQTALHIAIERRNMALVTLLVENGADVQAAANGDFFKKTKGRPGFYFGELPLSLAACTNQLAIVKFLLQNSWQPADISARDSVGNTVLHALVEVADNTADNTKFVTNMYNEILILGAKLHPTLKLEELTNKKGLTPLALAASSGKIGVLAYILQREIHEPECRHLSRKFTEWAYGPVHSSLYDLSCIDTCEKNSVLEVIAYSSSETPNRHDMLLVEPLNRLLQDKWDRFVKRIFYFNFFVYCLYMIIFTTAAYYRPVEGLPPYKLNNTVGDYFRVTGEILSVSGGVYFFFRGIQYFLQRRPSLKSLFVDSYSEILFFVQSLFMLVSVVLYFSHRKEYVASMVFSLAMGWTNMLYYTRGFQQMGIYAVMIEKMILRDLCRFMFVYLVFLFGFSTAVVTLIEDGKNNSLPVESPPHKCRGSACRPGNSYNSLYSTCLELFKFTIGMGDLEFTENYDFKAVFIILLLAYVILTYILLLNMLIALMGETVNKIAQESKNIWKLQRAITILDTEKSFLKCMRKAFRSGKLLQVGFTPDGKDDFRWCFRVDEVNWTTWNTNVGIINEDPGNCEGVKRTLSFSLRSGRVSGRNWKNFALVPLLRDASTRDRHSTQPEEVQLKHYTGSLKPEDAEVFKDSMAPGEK

[2] = system: area CA3 stratum pyramidale; assay: Heat-induced multi-unit activity (MUA) in hippocampal slices, field-potential recording; assay type: cell-based, mouse; conditions: wild-type slices pre-treated with capsazepine; p<0.05 vs untreated wild-type, n=27
Description: Coronal brain slices, 300-350 μm, were obtained from mice aged postnatal day 14-20 as previously described (Gibson et al., 2008; Gibson et al., 1999; McMahon & Kauer, 1997). Bathing perfusate was identical to previous except where indicated. A Haas-type interface chamber was used for field-potential recordings. Glass micropipettes were filled with 0.9% NaCl (resistance 400-700 kΩ). Simultaneous recordings were made in stratum pyramidale of CA1 and CA3 of each slice. Activity was recorded at 30° C. (5 min), ramped to 42° C. (5 min) and returned to 30° C. (10 min). Signals were amplified, digitally recorded at 10 kHz and stored (LabView).
For field-potential recordings, coronal slices, 350 μm thick, were obtained from P14-15 mice as previously described (Gibson et al., 2008; Gibson et al., 1999; McMahon & Kauer, 1997). Slices were kept at room temperature for at least 30 min until transferred to a 30° C. recording chamber. […] For all field-potential recordings, activity was recorded at 30° C. […] Signals were amplified, digitally recorded at 10 kHz and stored using an in-house LabView based program.
Multi-unit activity (MUA) was high-pass filtered at 500 Hz and spikes were detected using threshold-crossing criteria. […]
All combined data are expressed as mean±the standard error of the mean (s.e.m.). […]

Compound: Oc1cc2c(cc1O)CN(C(=S)NCCc1ccc(Cl)cc1)CCC2 [capsazepine]
- heat-induced change of membrane potential in CA1 neurons ([1]; 2 μM intracellular capsazepine, current clamp, ramp 30 to 42° C., absence 19.7±4.5 mV, n=6): 1.0±0.7 mV
- effect on heat-evoked current in CA1 pyramidal neuron ([1]; bath-applied capsazepine 10 μM, voltage clamp, heat ramp): blocked
- incidence of heat-induced increased MUA in area CA3 [2]: mimicked trpv1^−/− incidence rates of increased MUA in area CA3
